Test results: PMC6158189, “A pharmacological probe identifies cystathionine β-synthase as a new negative regulator for ferroptosis” (Cell Death & Disease, 2018)

Experiments:
[1] = system: HepG2 cells; experiment: colony formation (crystal violet); type: cell-based, human; conditions: 24 h treatment
Source text: Figure S12. CH004 inhibits the proliferation of cells via specifically targeting hCBS. (A-B) Dose-dependent curves of CH004 on the cell viability of CBS-stably-expressed HEK293T (A) or CBS-knockdown cells (B). Percentages of cell viability of CH004 obtained in Figure 4b were fitted to the non-linear equation using GraphPad Prism 5 to get the IC50 values of CH004 in respective cell lines (●, 293T-CBS WT cells; ○, 293T-EV; ▲, 293T-shCBS; △, 293T-shNT). Means ± SDs (n=3). […] HEK293T cells stably expressing of the lentiviral shRNA targeting CBS (shCBS) or control shRNA (shNT) were seeded at the density of ~ 3,000 cells per well in 96-well plates and the cell images in the bright field were acquired at indicated times by Image Xpress Micro® XLS (Molecular Devices, Sunnyvale, CA) under 10 × objective lens. Representative images of two independent experiments (n = 6 for each experiment) are shown in C. The cell numbers of images under 4 × objective lens of one representative experiment were calculated by Image Xpress Software and the data is shown in D. Means ± SDs (n=6). […] HepG2 cells were seeded in a 96-well plate at a density of 20000 cells per well and cultured for 24 h before treatment with indicated concentrations of CH004 for another 24 h. The colonies were stained with crystal violet and quantified by measuring the absorbance at 590 nm. […] Means ± SDs (n=3). […]

[2] = system: mouse embryonic fibroblasts (MEF); experiment: lipid ROS (BODIPY 581/591 C11, flow cytometry); type: cell-based; conditions: low micromolar concentrations, 24 h
Method: To detect lipid peroxidation upon treatment with CH004, HepG2 cells or mouse embryonic fibroblasts (MEF) were seeded in 12-well plates with ~ 1.8 × 10^5 cells per well for 24 h. After treatment with the inhibitor for another 24 h, cells were stained with BODIPY® 581/591 C11 (Invitrogen) for 1 h at a final concentration of 2 μM at 37 °C[57]. The cells were then resuspended in an appropriate amount of PBS after being washed once with PBS. Lipid peroxidation, i.e., lipid ROS, was analyzed by detection of the fluorescence using an LSR Fortessa flow cytometer. The data were recorded at 530/30 nm (green fluorescent) and 670/30 nm (red fluorescent) wavelengths after excitation at 488 nm. A minimum of 20000 events was used for the analysis. All the experiments were independently repeated twice in triplicate.
Figure S15. The mode of actions for CH004 in cells. […] Indicated HEK293T stable cell lines were treated with CH004 at a concentration of 10 µM for 24 h, and the cell viability was then measured using the CellTiter96® Aqueous One Solution Cell Proliferation Assay (Promega). Means ± SDs (n=3). (B-C) CH004 or erastin triggers ferroptosis in mouse embryonic fibroblasts (MEF). […] The cell viability was accordingly quantified using the CellTiter96® Aqueous One Solution Cell Proliferation Assay (Promega) and the results were shown as percentages of DMSO (control, 100%). […]

[3] = molecular target: T1, human dopa decarboxylase (hDDC) (Homo sapiens, UniProt P20711); experiment: purified hDDC enzyme assay; type: biochemical
T1 construct: made in house
T1 sequence (P20711 whole entry): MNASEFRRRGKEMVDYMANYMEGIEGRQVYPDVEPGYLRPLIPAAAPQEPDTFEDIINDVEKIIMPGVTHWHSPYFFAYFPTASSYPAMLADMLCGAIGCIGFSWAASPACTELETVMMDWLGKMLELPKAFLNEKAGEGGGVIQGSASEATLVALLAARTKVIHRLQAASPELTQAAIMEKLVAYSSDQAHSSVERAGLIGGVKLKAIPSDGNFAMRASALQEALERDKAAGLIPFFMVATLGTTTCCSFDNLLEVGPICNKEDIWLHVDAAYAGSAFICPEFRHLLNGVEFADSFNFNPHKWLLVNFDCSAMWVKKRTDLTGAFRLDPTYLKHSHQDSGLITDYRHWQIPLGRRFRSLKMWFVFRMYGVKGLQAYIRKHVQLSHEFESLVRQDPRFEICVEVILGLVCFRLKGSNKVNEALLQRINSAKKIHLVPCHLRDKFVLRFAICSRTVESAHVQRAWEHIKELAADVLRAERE
Method: The IC50 values of CH004 for hCBS-413, hCBS-413 mutants, hCBS-FL, hCSE or hDDC were determined according to the standard assay conditions otherwise indicated.

Q: `Cn1nc(Cc2ccccc2)nc2c(=O)n(C)c(=O)nc1-2` [CH004, 3-benzyl-1,6-dimethylpyrimido[5,4-e][1,2,4]triazine-5,7(1H,6H)-dione] was tested. Which IC50 [1] did it give?
A: ~8 µM

Q: And the IC50 ([1]; Homo sapiens, HepG2, 24 h)?
A: ~7.9 µM

Q: What about the “induction of ferroptosis (lipid ROS) in MEF” value [2] of the same compound?
A: ~2 fold

Q: And the “Fold selectivity hDDC vs hCBS-413” value ([3]; IC50 of hDDC / IC50 of hCBS-413)?
A: > 400 (> 400) fold

Q: And the IC50 ([3]; standard conditions)?
A: > 400 µM
